For one assay, the target named is T1, MAO (substrate PEA) (Rattus norvegicus, UniProt P19643).
T1 construct: 20 μl of rat brain homogenate; from tissue; host or cells: rat brain homogenate
T1 sequence (P19643 1-520): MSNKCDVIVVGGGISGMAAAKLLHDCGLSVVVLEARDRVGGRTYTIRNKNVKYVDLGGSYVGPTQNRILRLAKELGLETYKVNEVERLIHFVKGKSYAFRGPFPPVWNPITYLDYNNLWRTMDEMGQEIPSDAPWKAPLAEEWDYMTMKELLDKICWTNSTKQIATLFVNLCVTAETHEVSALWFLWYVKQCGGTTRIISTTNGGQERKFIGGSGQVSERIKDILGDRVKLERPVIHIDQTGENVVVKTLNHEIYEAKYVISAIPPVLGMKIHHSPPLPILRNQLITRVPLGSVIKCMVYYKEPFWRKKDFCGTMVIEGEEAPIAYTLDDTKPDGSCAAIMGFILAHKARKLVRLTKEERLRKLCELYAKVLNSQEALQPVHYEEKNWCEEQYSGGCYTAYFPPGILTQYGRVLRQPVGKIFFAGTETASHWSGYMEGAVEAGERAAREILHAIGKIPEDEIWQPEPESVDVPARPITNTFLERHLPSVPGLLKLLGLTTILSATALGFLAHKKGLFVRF
Briefly: in vitro MAO inhibition in rat brain homogenate, substrate 14C-phenylethylamine (PEA). Format: biochemical. To be noted: substrate 14C-phenylethylamine (PEA) 2.10^-5 Mol/l, pH 7.4, 37° C., preincubation 30 minutes, incubation 10 minutes. On the procedure:
(§1) The MAO inhibiting activity of the compounds in accordance with the invention can be determined using standard methods. Thus, the preparations to be tested were subjected to the in vitro test described hereinafter, which followed the method published by R. J. Wurtmann and J. A. Axelrod [Biochem. Pharmac. 12, 1439-1441 (1963)].
(§2) Isolated rat brains are homogenized in the ratio 1:4 (weight/volume) in 0.1 molar potassium phosphate buffer (pH 7.4). whereupon the homogenates are diluted in the ratio 1:4 (volume/volume) with the same buffer and stored at -20°. A mixture of the following composition is used for the incubation:
(§3) 100 μl of 1M phosphate buffer (pH 7.4);
(§4) 100 μl solubilizate of the substance to be tested in water or dimethyl sulfoxide;
(§5) 20 μl of rat brain homogenate; and as the substrate
(§6) 80 μl of ^14 C-serotonin (5-HT) or ^14 C-phenylethylamine (PEA), in each case 100,000 decays per minute, corresponding to a final concentration of 2.10^-4 Mol/l and, respectively, 2.10^-5 Mol/l.
(§7) Prior to the addition of the substrate a preincubation at 37° C. was effected for 30 minutes. The incubation (in the presence of the substrate) was also effected at 37° C. and lasted 10 minutes.
(§8) The reaction is stopped by the addition of 200 μl of 2N hydrochloric acid.
(§9) The deaminated product, depending on the use of 5-HT or of PEA as the substrate, is extracted by shaking for 10 minutes with 5 ml of diethyl ether or with 5 ml of n-heptane, whereupon the mixture is centrifuged, the aqueous phase is frozen in a dry-ice bath and the organic phase is poured into a counting glass.
(§10) The activity of the MAO in comparison to control homogenates (without substance to be tested) is determined on the basis of the β-counter value and the IC 50 is defined as that concentration of a substance to be tested which decreases the activity of the MAO in the substrate 5-HT or PEA to 50%.

The next assay has as its target T2, MAO (substrate 5-HT) (Rattus norvegicus, UniProt P21396).
T2 construct: 20 μl of rat brain homogenate; from tissue; host or cells: rat brain homogenate
T2 sequence (P21396 1-526): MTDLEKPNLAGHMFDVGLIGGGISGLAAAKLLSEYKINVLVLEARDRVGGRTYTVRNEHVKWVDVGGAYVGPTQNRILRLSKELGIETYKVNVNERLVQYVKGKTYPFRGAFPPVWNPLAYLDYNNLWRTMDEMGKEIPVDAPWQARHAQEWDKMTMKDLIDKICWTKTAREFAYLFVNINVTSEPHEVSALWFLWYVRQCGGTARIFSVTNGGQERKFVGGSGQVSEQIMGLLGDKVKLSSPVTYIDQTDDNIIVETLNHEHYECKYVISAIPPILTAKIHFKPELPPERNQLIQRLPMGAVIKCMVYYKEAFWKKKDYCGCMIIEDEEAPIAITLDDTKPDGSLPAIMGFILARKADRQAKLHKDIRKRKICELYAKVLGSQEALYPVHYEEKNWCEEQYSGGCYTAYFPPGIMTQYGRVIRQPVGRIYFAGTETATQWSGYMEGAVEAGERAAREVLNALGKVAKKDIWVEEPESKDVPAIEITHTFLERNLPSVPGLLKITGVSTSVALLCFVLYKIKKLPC
Briefly: in vitro MAO inhibition in rat brain homogenate, substrate 14C-serotonin (5-HT). To be noted: substrate 14C-serotonin (5-HT) 2.10^-4 Mol/l, pH 7.4, 37° C., preincubation 30 minutes, incubation 10 minutes, read-out: IC 50, 5-HT. The assay is classed as biochemical. The procedure:
as §1, §2, §3, §4, §5, §6, §7, §8, §9, §10

Drawing on patent US5011849A, “Compounds for treating and preventing cognitive diseases and depression and methods of making same” (Hoffmann-La Roche Inc., priority 1988, dated 1991), this text covers IC50 for 8 molecules.

Some results are limits rather than exact numbers.

As for `NCCNC(=O)c1ncsc1-c1cccc(F)c1` [5-(3-fluorophenyl)-4-thiazol, N-(2-aminoethyl)-5-(3-fluorophenyl)-4-thiazolecarboxamide], the IC50 against MAO (substrate PEA) is more than 10000 nM; at MAO (substrate 5-HT) it was 20 nM.

As for `NCCNC(=O)c1ncsc1-c1ccc(F)cc1` [5-(4-fluorophenyl)-4-thiazol, N-(2-aminoethyl)-5-(4-fluorophenyl)-4-thiazolecarboxamide], the IC50 is 100000 nM on MAO (substrate PEA) and 60 nM at MAO (substrate 5-HT).

`NCCNC(=O)c1ncoc1-c1ccc(Cl)cc1` [5-(4-chlorophenyl)-4-oxazol, N-(2-aminoethyl)-5-(4-chlorophenyl)-4-oxazolecarboxamide]: the IC50 on MAO (substrate PEA) is more than 100000 nM; at MAO (substrate 5-HT) it was less than 10 nM.

Take `NCCNC(=O)c1ncsc1-c1ccc(F)cc1F` [5-(2,4-difluorophenyl)-4-thiazol, N-(2-aminoethyl)-5-(2,4-difluorophenyl)-4-thiazolecarboxamide]: the results for the IC50 on MAO (substrate PEA) and at MAO (substrate 5-HT) were 3600 nM and 120 nM, respectively.

Consider `NCCNC(=O)c1ncoc1-c1ccco1` [5-(2-furyl)-4-oxazol, N-(2-aminoethyl)-5-(2-furyl)-4-oxazolecarboxamide], for which the values for the IC50 against MAO (substrate PEA) and at MAO (substrate 5-HT) were 2000 nM and 22 nM, respectively.

On to `NCCNC(=O)c1ncsc1-c1ccccc1F` [5-(2-fluorophenyl)-4-thiazol, N-(2-aminoethyl)-5-(2-fluorophenyl)-4-thiazolecarboxamide], for which the IC50 against MAO (substrate PEA) is more than 10000 nM; on MAO (substrate 5-HT), 40 nM.

Consider `NCCNC(=O)c1ncsc1-c1cc(Cl)cc(Cl)c1` [5-(3,5-dichlorophenyl)-4-thiazol, N-(2-aminoethyl)-5-(3,5-dichlorophenyl)-4-thiazolecarboxamide], for which the values for the IC50 against MAO (substrate PEA) and on MAO (substrate 5-HT) were 300 nM and 7 nM, respectively.

`NCCNC(=O)c1ncsc1-c1ccccc1` [5-phenyl-4-thiazol, N-(2-aminoethyl)-5-phenyl-4-thiazolecarboxamide]: the IC50 at MAO (substrate PEA) amounted to 20000 nM; at MAO (substrate 5-HT), 20 nM.
